The structures appear in SMILES notation.

The subject of this assay is blood lymphocytes. The experiment in a line: Lymphopenia assay (circulating lymphocyte counts after oral gavage). It counts as in vivo. The note with it: mice; for lymphopenia (circulating lymphocyte counts): single dose 10 mg/kg in 2% hydroxypropyl beta-cyclodextrin, blood drawn after 18 hours. On the procedure:
The test compounds VPC122096 (benzylcyclopentyl), VPC122093 (benzylcyclohexyl) or VPC122097 (benzylcycloheptyl) compounds are dissolved in 2% hydroxypropyl beta-cyclodextrin and administered to mice by oral gavage at doses from 0.01 to 10 mg/kg body weight. After 24 hours (or other specified times), the mice are lightly anesthetized and ca. 0.1 ml of blood is drawn from the orbital sinus. The number of lymphocytes (in thousands per microliter of blood; normal is 4-11) is determined using a Hemavet blood analyzer. There were three mice per group, male, 10-11 weeks old, and the strain was mixed sv129×C57BL/6.
The test compounds VPC122096, VPC122097, or VPC122093 were dissolved in 2% aqueous hydroxypropyl beta-cyclodextrin and introduced into mice by oral gavage at 10 mg/kg (Three mice per group). Blood was drawn after 18 hours and examined. […] The results are illustrated in FIG. 3.
The test compound VPC122096, was dissolved in 2% aqueous hydroxypropyl beta-cyclodextrin (vehicle) and administered to mice orally (gavage) at doses of 0.01 mg/kg, 0.03 mg/kg, 0.1 mg/kg, 0.3 mg/kg, 1 mg/kg, and 3 mg/kg to provide a dose response curve (three-four mice per group, adult, C57Bl/6 strain). The blood samples were taken at 18 hours and 42 hours. Three mice per group, male, 10-11 week old sv129/C57Bl6 strain. The results are illustrated in FIG. 4. The ordinate represents lymphocytes in K/μl. The abscissa represents time in days after administration of a single dose. The ordinate represents lymphocytes in K/μl. The abscissa represents dose in milligram compound per kilogram body weight (mpk).
The duration of the effect of the test compounds was evaluated after administration of test compound VPC122096, dissolved in 2% aqueous hydroxypropyl beta-cyclodextrin (vehicle) and administered to mice orally (gavage). […] The blood samples were taken at 16 hours, 4 days, 12 days, and 19 days. FIG. 5 illustrates total blood lymphocyte count following the single dose of VPC122096 or vehicle.

For the molecule `CCCCCCCCc1ccc(CC2CCCC(CO)C2N)cc1` (centres unmarked) [VPC122093], the “lymphopenia (circulating lymphocyte counts)” value (oral gavage) is given as “evoked lymphopenia”. Consider `CCCCCCCCc1ccc(CC2CCCC2(N)CO)cc1` (centres unmarked) [VPC122096, (1-amino-2-(4′-octylbenzyl)cyclopentyl)methanol], for which the “lymphopenia (circulating lymphocyte counts)” value (oral gavage) is “evoked lymphopenia”. In addition, the “lymphopenia, duration of the effect (total blood lymphocyte count)” value (oral gavage, single dose (1.0 mg/kg per FIG. 5), blood samples at 16 hours, 4 days, 12 days, 19 days) was “evoked a long lasting lymphopenia”. In addition, the duration of lymphopenia entry (single ED95 dose, oral) is “a week or more”.

As for `CCCCCCCCc1ccc(CC2CCCCCC2(N)CO)cc1` (centres unmarked) [VPC122097], the “lymphopenia (circulating lymphocyte counts)” value (oral gavage) is on record as “evoked lymphopenia”.

(Values after patent publication US7960588B2, “Benzyl cycloalkyl sphingosine 1-phosphate receptor modulators” (University of Virginia Patent Foundation, priority 2007, dated 2011).)
